Assay results published in PubChem BioAssay AID328 (DTP/NCI, 2004).
Values joined by “and” are separate entries in the source; they are usually repeats but may differ in a detail not shown here. Identical values can stand only once. Inconclusive results and toxic doses are left out.

System: BDF1 mice, P388 leukemia ip, median survival T/C
Assay: NCI In Vivo Anticancer Drug Screen. Data for tumor model P388 Leukemia (intraperitoneal) in B6D2F1 (BDF1) mice
Conditions: endpoint: median survival time, higher = longer survival
Procedure, shortened: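 Each value expresses how treatment altered survival: treated-mouse outcome over vehicle-mouse outcome, both groups bearing the transplanted tumour.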

[1] = dose: 50.0 mg/kg/injection, schedule: Q01DX009 (ip), vehicle: saline with Tween-80
[2] = dose: 50.0 mg/kg/injection, schedule: Q04DX003 (ip), vehicle: saline with Tween-80
[3] = dose: 100.0 mg/kg/injection, schedule: Q01DX009 (ip), vehicle: saline with Tween-80
[4] = dose: 100.0 mg/kg/injection, schedule: Q04DX003 (ip), vehicle: saline with Tween-80
[5] = dose: 200.0 mg/kg/injection, schedule: Q01DX009 (ip), vehicle: saline with Tween-80
[6] = dose: 200.0 mg/kg/injection, schedule: Q04DX003 (ip), vehicle: saline with Tween-80
[7] = dose: 25.0 mg/kg/injection, schedule: Q04DX003 (ip), vehicle: saline with Tween-80
[8] = dose: 400.0 mg/kg/injection, schedule: Q04DX003 (ip), vehicle: saline with Tween-80
[9] = dose: 25.0 mg/kg/injection, schedule: Q01DX009 (ip), vehicle: Klucel (hydroxypropylcellulose) (HPC)
[10] = dose: 100.0 mg/kg/injection, schedule: Q01DX009 (ip), vehicle: Klucel (hydroxypropylcellulose) (HPC)
[11] = dose: 6.25 mg/kg/injection, schedule: Q04DX003 (ip), vehicle: saline with Tween-80
[12] = dose: 12.5 mg/kg/injection, schedule: Q04DX003 (ip), vehicle: saline with Tween-80
[13] = dose: 12.5 mg/kg/injection, schedule: Q01DX001 (ip), vehicle: saline with Tween-80

CC(=O)c1ccccc1C was tested, and the T/C [1] was 100 % of control, the T/C [2] was 100 % of control and the T/C [3] was 109 % of control. For the same compound, the T/C [4] was 100 % of control, the T/C [5] was 95 % of control and the T/C [6] was 100 % of control.
In the case of COc1cc2nccc3c4ccccc4n(c1=O)c23, the T/C (dose: 100.0 mg/kg/injection, schedule: Q01DX010 (ip), vehicle: saline) is reported as 90 % of control, the T/C (dose: 200.0 mg/kg/injection, schedule: Q01DX010 (ip), vehicle: saline) is reported as 90 % of control and the T/C (dose: 400.0 mg/kg/injection, schedule: Q01DX010 (ip), vehicle: saline) is reported as 95 % of control. The T/C (dose: 800.0 mg/kg/injection, schedule: Q01DX010 (ip), vehicle: saline) was 100 % of control.
For O=[N+]([O-])c1ccc(C(O)Nc2nccs2)o1 (stereo unspecified), the T/C [7] was 95 % of control, the T/C [2] was 100 % of control and 104 % of control and the T/C [4] was 100 % of control.
In the case of COc1ccccc1OCC(C)=O, the T/C (dose: 178.0 mg/kg/injection, schedule: Q04DX003 (ip), vehicle: saline with Tween-80) is reported as 104 % of control, the T/C (dose: 266.0 mg/kg/injection, schedule: Q04DX003 (ip), vehicle: saline with Tween-80) is reported as 104 % of control and the T/C [8] is reported as 114 % of control. The T/C (dose: 600.0 mg/kg/injection, schedule: Q04DX003 (ip), vehicle: saline with Tween-80) was 104 % of control.
With CC1=CC(=NN=c2cc(C)n([O-])c(C)c2)C=C(C)[N+]1=O the T/C (dose: 12.5 mg/kg/injection, schedule: Q01DX010 (ip), vehicle: saline) was 91 % of control and 104 % of control and 114 % of control.
In the case of O=[N+]([O-])c1ccccc1C(c1ccc2ccccc2c1O)N1CCOCC1 (stereo unspecified), the T/C (dose: 33.0 mg/kg/injection, schedule: Q01DX001 (ip), vehicle: saline with Tween-80) is reported as 100 % of control, the T/C (dose: 50.0 mg/kg/injection, schedule: Q01DX001 (ip), vehicle: saline sonified) is reported as 163 % of control and the T/C (dose: 50.0 mg/kg/injection, schedule: Q01DX001 (ip), vehicle: saline with Tween-80) is reported as 100 % of control. For the same compound, the T/C (dose: 75.0 mg/kg/injection, schedule: Q01DX001 (ip), vehicle: saline with Tween-80) was 100 % of control, the T/C (dose: 100.0 mg/kg/injection, schedule: Q01DX001 (ip), vehicle: saline sonified) was 109 % of control and the T/C (dose: 200.0 mg/kg/injection, schedule: Q01DX001 (ip), vehicle: saline sonified) was 95 % of control.
In the case of CCOC(=O)C(=O)CC(=O)/C=C/c1ccccc1, the T/C [3] is reported as 96 % of control and the T/C [5] is reported as 107 % of control.
For CN(C)N=Nc1ccccc1[N+](=O)[O-], the T/C [9] was 107 % of control and the T/C [10] was 92 % of control.
For COc1ccc(C(=O)C=C(C(F)(F)F)C(F)(F)F)cc1, the T/C [11] was 113 % of control, the T/C [12] was 100 % of control and the T/C [7] was 100 % of control. The T/C [2] was 115 % of control and the T/C [4] was 110 % of control.
With CC(=O)c1nc2c(N)nc(N)nc2nc1C the T/C [4] was 92 % of control, the T/C [6] was 111 % of control and the T/C [8] was 106 % of control.
For C1CC2CCC[N]3C2C(C1)[O][Pb]31[O]C2CCCC3CCC[N]1C32 (stereo unspecified), the T/C (dose: 133.0 mg/kg/injection, schedule: Q04DX003 (ip), vehicle: saline with Tween-80) was 96 % of control and 100 % of control, the T/C [6] was 100 % of control and 104 % of control and the T/C (dose: 300.0 mg/kg/injection, schedule: Q04DX003 (ip), vehicle: saline with Tween-80) was 95 % of control and 104 % of control.
With N#[N+]c1cnc([O-])[nH]c1=O the T/C (dose: 1.25 mg/kg/injection, schedule: Q01DX010 (ip), vehicle: saline) was 175 % of control, the T/C (dose: 2.5 mg/kg/injection, schedule: Q01DX010 (ip), vehicle: saline) was 185 % of control and the T/C (dose: 5.0 mg/kg/injection, schedule: Q01DX010 (ip), vehicle: saline) was 172 % of control and 210 % of control. The T/C (dose: 10.0 mg/kg/injection, schedule: Q01DX010 (ip), vehicle: saline) was 240 % of control and 177 % of control.
C[As](C)SCC1OC2OC(C)(C)OC2C2OC(C)(C)OC12 (stereo unspecified) was tested, and the T/C [1] was 110 % of control and 123 % of control.
With Cc1cc2c3ccccc3ncn2n1 the T/C (dose: 100.0 mg/kg/injection, schedule: Q01DX001 (ip), vehicle: saline) was 100 % of control, the T/C [10] was 100 % of control and the T/C (dose: 100.0 mg/kg/injection, schedule: Q04DX003 (ip), vehicle: saline) was 100 % of control. The T/C (dose: 200.0 mg/kg/injection, schedule: Q01DX001 (ip), vehicle: saline) was 108 % of control, the T/C (dose: 200.0 mg/kg/injection, schedule: Q01DX009 (ip), vehicle: Klucel (hydroxypropylcellulose) (HPC)) was 108 % of control and the T/C (dose: 200.0 mg/kg/injection, schedule: Q04DX003 (ip), vehicle: saline) was 100 % of control. For the same compound, the T/C (dose: 400.0 mg/kg/injection, schedule: Q04DX003 (ip), vehicle: saline) was 100 % of control.
For CCN(CC)CCCC#CCN1CCCCC1, the T/C [9] was 100 % of control, the T/C (dose: 25.0 mg/kg/injection, schedule: Q04DX003 (ip), vehicle: Klucel (hydroxypropylcellulose) (HPC)) was 91 % of control and the T/C (dose: 50.0 mg/kg/injection, schedule: Q01DX009 (ip), vehicle: Klucel (hydroxypropylcellulose) (HPC)) was 90 % of control. For the same compound, the T/C (dose: 50.0 mg/kg/injection, schedule: Q04DX003 (ip), vehicle: Klucel (hydroxypropylcellulose) (HPC)) was 91 % of control, the T/C [10] was 100 % of control and the T/C (dose: 100.0 mg/kg/injection, schedule: Q04DX003 (ip), vehicle: Klucel (hydroxypropylcellulose) (HPC)) was 91 % of control.
In the case of [Fe+5].[O-][Cl+3]([O-])([O-])O.[O-]c1ccccc1C=NCCN1CC1.[O-]c1ccccc1C=NCCN1CC1, the T/C [4] is reported as 100 % of control and 120 % of control and the T/C [6] is reported as 116 % of control.
For O=[N+]([O-])c1ccc(N/N=C(\COc2ccccc2)c2ccccc2)c([N+](=O)[O-])c1, the T/C (dose: 6.25 mg/kg/injection, schedule: Q01DX001 (ip), vehicle: saline with Tween-80) was 95 % of control, the T/C [13] was 100 % of control and the T/C (dose: 25.0 mg/kg/injection, schedule: Q01DX001 (ip), vehicle: saline with Tween-80) was 104 % of control.
For ClC12CC3CC(CC(C3)C1)C2, the T/C (dose: 50.0 mg/kg/injection, schedule: Q04DX003 (ip), vehicle: acetone) was 104 % of control, the T/C (dose: 100.0 mg/kg/injection, schedule: Q04DX003 (ip), vehicle: acetone) was 113 % of control and the T/C (dose: 200.0 mg/kg/injection, schedule: Q04DX003 (ip), vehicle: acetone) was 109 % of control.
CC(Br)C(=O)NCC(=O)O (stereo unspecified) was tested, and the T/C [2] was 90 % of control, the T/C [4] was 95 % of control and the T/C [6] was 100 % of control.
COc1ccc(CNCCNCCNCc2ccc(OC)cc2)cc1 was tested, and the T/C (dose: 25.0 mg/kg/injection, schedule: Q01DX009 (ip), vehicle: saline with Tween-80) was 87 % of control, the T/C [1] was 105 % of control and the T/C [3] was 101 % of control and 105 % of control. The T/C [4] was 122 % of control, the T/C [5] was 93 % of control and the T/C [6] was 111 % of control. For the same compound, the T/C (dose: 400.0 mg/kg/injection, schedule: Q01DX009 (ip), vehicle: saline with Tween-80) was 101 % of control and the T/C [8] was 122 % of control.
In the case of Nc1nc(F)nc2c1ncn2C1OC(CO)C(O)C1O (stereo unspecified), the T/C (dose: 0.5 mg/kg/injection, schedule: Q01DX010 (ip), vehicle: saline) is reported as 90 % of control and 108 % of control, the T/C (dose: 1.0 mg/kg/injection, schedule: Q01DX010 (ip), vehicle: saline) is reported as 100 % of control and 108 % of control and the T/C (dose: 2.0 mg/kg/injection, schedule: Q01DX010 (ip), vehicle: saline) is reported as 110 % of control and 120 % of control. The T/C (dose: 4.0 mg/kg/injection, schedule: Q01DX010 (ip), vehicle: saline) was 105 % of control and 112 % of control.
In the case of O=C(O)c1ccc(O)c(=O)cc1, the T/C [13] is reported as 102 % of control.
In the case of N#C/C(=C\C=C\c1ccccc1)C(N)=O, the T/C [1] is reported as 110 % of control, the T/C [3] is reported as 120 % of control and the T/C [5] is reported as 120 % of control.
In the case of COc1ccc(CN)cc1OC, the T/C [1] is reported as 100 % of control, the T/C [3] is reported as 91 % of control and the T/C [5] is reported as 97 % of control.
With CCc1ccc2c(c1)N(CCCN(CCCl)CCCl)c1ccccc1S2 the T/C (dose: 1.56 mg/kg/injection, schedule: Q04DX003 (ip), vehicle: saline with Tween-80) was 102 % of control and 104 % of control, the T/C (dose: 3.12 mg/kg/injection, schedule: Q04DX003 (ip), vehicle: saline with Tween-80) was 93 % of control and 104 % of control and the T/C [11] was 118 % of control. For the same compound, the T/C [12] was 163 % of control.
